According to patent US20100249172A1, “9-CHLORO NOSCAPINE AND ITS USE IN TREATING CANCERS, INCLUDING DRUG-RESISTANT CANCERS” (EMORY UNIVERSITY, priority 2007, published 2010):

Key:
MCF-7 cells [1] = assay: Immunofluorescence confocal microscopy of spindle architecture and nuclear morphology; format: cell-based, human; details: 25 μM, 0, 12, 24, 48 and 72 hours
Protocol: Cells adhered to poly-L-lysine coated coverslips were treated with noscapine, 9-chloro-noscapine, and other halogenated analogs (9-F-nos, 9-Br-nos, and 9-I-nos) for 0, 12, 24, 48 and 72 hours. After treatment, cells were fixed with cold (−20° C.) methanol for 5 min and then washed with phosphate-buffered saline (PBS) for 5 min. Non-specific sites were blocked by incubating with 100 μl of 2% BSA in PBS at 37° C. for 15 min. A mouse monoclonal antibody against α-tubulin (DM1A, Sigma) was diluted 1:500 in 2% BSA/PBS (100 μl) and incubated with the coverslips for 2 hours at 37° C. Cells were then washed with 2% BSA/PBS for 10 min at room temperature before incubating with a 1:200 dilution of a fluorescein-isothiocyanate (FITC)-labeled goat anti-mouse IgG antibody (Jackson ImmunoResearch, Inc., West Grove, Pa.) at 37° C. for 1 hour. Coverslips were then rinsed with 2% BSA/PBS for 10 min and incubated with propidium iodide (0.5 μg/ml) for 15 min at room temperature before they were mounted with Aquamount (Lerner Laboratories, Pittsburgh, Pa.) containing 0.01% 1,4-diazobicyclo(2,2,2)octane (DABCO, Sigma). […]
To test whether 9-chloro-noscapine induces spindle abnormalities prior to apoptotic cell death indicated by nuclear fragmentation of dying cells, the spindle architecture and nuclear morphology of MCF-7 cells treated with 9-chloronoscapine was evaluated using confocal microscopy (FIG. 4). […]

MDA-MB-231 cells [2] = assay: Sulforhodamine B (SRB) cell proliferation assay; format: cell-based; details: Homo sapiens, MDA-MB-231, 72 hours drug treatment
Protocol: (§1) Sulforhodamine B (SRB) assay: The cell proliferation assay was performed in 96-well plates as described previously. Adherent cells (MCF-7 and MDA-MB-231) were seeded in 96-well plates at a density of 5×10^3 cells per well. They were treated with increasing concentrations of the halogenated analogs the next day while in log-phase growth. After 72 hours of drug treatment, cells were fixed with 50% trichloroacetic acid and stained with 0.4% sulforhodamine B dissolved in 1% acetic acid. After 30 minutes, cells were then washed with 1% acetic acid to remove the unbound dye. The protein-bound dye was extracted with 10 mM Tris base to determine the optical density at 564-nm wavelength.
(§2) Suspension cells (CEM) were seeded into 96-well plates at a density of 5×10^3 cells per well and were treated with increasing concentrations of all halogenated analogs for 72 hours. Measurement of cell proliferation was performed colorimetrically by 3-(4,5-dimethylthiazol-2-yl)-5-(3-carboxymethoxyphenyl)-2-(4-sulphophenyl)-2H-tetrazolium, inner salt (MTS) assay, using the CellTiter96 AQueous One Solution Reagent (Promega, Madison, Wis.). Cells were exposed to MTS for 3 hours and absorbance was measured using a microplate reader (Molecular Devices, Sunnyvale, Calif.) at an optical density (OD) of 490 nm. […]

MCF-7 cells [3] = assay: Sulforhodamine B (SRB) cell proliferation assay; format: cell-based; details: Homo sapiens, MCF7, MCF-7, 72 hours drug treatment
Protocol: as §1, §2

MDA-MB-231 cells [4] = assay: DAPI staining, cell morphology by fluorescence microscopy; format: cell-based, human; details: 25 μM, 72 hours
Protocol: FIG. 2 is a series of photographs showing the effect of 9-chloro-nos on the morphology of cancer cells. Morphologic criteria for apoptotic cell death include, for example, chromatin condensation with aggregation along the nuclear envelope and plasma membrane blebbing followed by separation into small, apoptotic bodies. Panels show morphological evaluation of nuclei stained with DAPI from control cells (upper panels) and cells treated with 25 μM concentration of 9-Cl-nos for 72 hours (lower panels) using fluorescence microscopy. […] (Scale bar=15 μm).
Cell morphology was evaluated by fluorescence microscopy following DAPI staining (Vectashield, Vector Labs, Inc., Burlingame, Calif.). MDA-MB-231 cells were grown on poly-L-lysine coated coverslips in 6-well plates and were treated with the halogenated analogs at 25 μM for 72 hours. After incubation, coverslips were fixed in cold methanol and washed with PBS, stained with DAPI, and mounted on slides. Images were captured using a BX60 microscope (Olympus, Tokyo, Japan) with an 8-bit camera (Dage-MTI, Michigan City, Ind.) and IP Lab software (Scanalytics, Fairfax, Va.). Apoptotic cells were identified by features characteristic of apoptosis (e.g. nuclear condensation, formation of membrane blebs and apoptotic bodies).

[5] = test system: 1A9/PTX22 (paclitaxel-resistant variant); assay: Inhibition of cell proliferation; format: cell-based
[6] = test system: CEM/VM-1-5 (teniposide-resistant variant); assay: Inhibition of cell proliferation; format: cell-based, human

COc1ccc2c(c1OC)C(=O)O[C@@H]2[C@H]1c2c(c(Cl)c3c(c2OC)OCO3)CCN1C [9-Cl-nos, (S)-3-((R)-9-chloro-4-methoxy-6-methyl-5,6,7,8-tetrahydro-[1,3]dioxolo[4,5-g]isoquinolin-5-yl)-6,7-dimethoxyisobenzofuran-1(3H)-one]
spindle abnormalities / mitotic arrest (MCF-7 cells [1]): mitotic arrest commencing as early as 12 hours, and maximizing at 24 hours
IC50 (MDA-MB-231 cells [2]): 3500 ± 400 nM
IC50 (MCF-7 cells [3]): 1900 ± 300 nM
nuclear morphology, features of apoptotic cells (MDA-MB-231 cells [4]): condensed chromosomes, numerous fragmented micronuclei, and apoptotic bodies are evident
inhibition of cell proliferation (in words) [5]: effectively inhibits cell proliferation
inhibition of cell proliferation (in words) [6]: effectively inhibits cell proliferation
